The values that follow come from patent publication US11292791B2 (priority 2017, dated 2022).

Molecules are shown by their SMILES.

This assay deals with BRD4 (Homo sapiens (Human), UniProt O60885). The settings on record: read-out: BRD4 IC50 (μM gmean).
Usually IC50 stands for the point on the concentration scale where inhibition reaches its midpoint. For `COC(=O)N1c2ccc3c(nc(C4(n5cc(Cl)cn5)CC4)n3[C@H]3CC[C@H](C(=O)O)CC3)c2CC[C@@H]1C` [Example 617], the IC50 is 1 to 1000 µM.

In the case of `COC(=O)N1c2ccc3c(nc(Cc4ccc(OC(F)F)nc4)n3[C@@H]3CCC[C@@H](C(=O)O)C3)c2CC[C@@H]1C` [Example 619], the half-inhibitory concentration (IC50) was in the range of 1 to 1000 µM.

For `COC(=O)N1c2ccc3c(nc(CC(C(=O)O)c4ccc(C5CC5)cc4)n3C3CCCOC3)c2CC[C@@H]1C` (stereo partly drawn) [Example 620], the IC50 was 1 to 1000 µM.

On to `COC(=O)N1c2ccc3c(nc(C(C)CC4CCOCC4)n3C3CCCC(C(=O)O)C3)c2CC[C@@H]1C` (stereo partly drawn) [Example 622], for which the IC50 was in the range of 1 to 1000 µM.

Consider `COC(=O)N1c2ccc3c(nc(C(O)C4CCCCC4)n3C3CCCC(C(=O)O)C3)c2CC[C@@H]1C` (stereo partly drawn) [Example 625], for which the IC50 was in the range of 1 to 1000 µM.

As to `COC(=O)N1c2ccc3c(nc(C(C)Cn4cccn4)n3C3CCC(C(=O)O)CC3)c2CC[C@@H]1C` (stereo partly drawn) [Example 627], the concentration for half-maximal inhibition (IC50) was 1 to 1000 µM.

Take `COC(=O)N1c2ccc3c(nc(CCn4cc(Cl)cn4)n3[C@@H]3CCC[C@@H](C(=O)O)C3)c2CC[C@@H]1C` [Example 628]: the IC50 was in the range of 1 to 1000 µM.

Regarding `COC(=O)N1c2ccc3c(nc(CC(C(=O)O)c4ccc(C(F)F)cc4)n3C3COCC(F)(F)C3)c2CC[C@@H]1C` (stereo partly drawn) [Example 629], the IC50 fell in the range of 1 to 1000 µM.

Take `COC(=O)N1c2ccc3c(nc(CC(C(=O)O)c4ccccc4)n3C3CCCC(OC)C3)c2CC[C@@H]1C` (stereo partly drawn) [Example 632]: the 50% inhibitory concentration (IC50) is 1 to 1000 µM.

With `COC(=O)N1c2ccc3c(nc(COc4ccccc4)n3[C@H]3CC[C@H](C(=O)O)CC3)c2CC[C@@H]1C` [Example 633], the half-inhibitory concentration (IC50) fell in the range of 1 to 1000 µM.

Consider `COC(=O)N1c2ccc3c(nc(CN4CCC5(CCC5)CC4=O)n3[C@@H]3CCC[C@@H](C(=O)O)C3)c2CC[C@@H]1C` [Example 634], for which the IC50 is 1 to 1000 µM.

On to `COC(=O)N1c2ccc3c(nc(C(O)c4cc5c(cn4)OCC5)n3C3CCCC(C(=O)O)C3)c2CC[C@@H]1C` (stereo partly drawn) [Example 636], for which the half-maximal inhibitory concentration (IC50) lay within 1 to 1000 µM.

For `COC(=O)N1c2ccc3c(nc(Cc4ccc(NC(C)=O)c(F)c4)n3[C@H]3CC[C@H](C(=O)O)CC3)c2CC[C@@H]1C` [Example 639], the IC50 was 1 to 1000 µM.

For the compound `COC(=O)N1c2ccc3c(nc(Cc4ccc(OC)c(OC)c4)n3[C@@H]3CCC[C@@H](C(=O)O)C3)c2CC[C@@H]1C` [Example 641], the half-maximal inhibitory concentration (IC50) fell in the range of 1 to 1000 µM.

Turning to `COC(=O)N1c2ccc3c(nc(Cn4cc(Cl)cn4)n3[C@@H]3CCC[C@@H](C(=O)O)C3)c2CC[C@@H]1C` [Example 643], the IC50 lay in the range of 1 to 1000 µM.

In the case of `COC(=O)N1c2ccc3c(nc(CC(C(=O)O)c4cccc(C)c4)n3C3CCCOC3)c2CC[C@@H]1C` (stereo partly drawn) [Example 644], the 50% inhibitory concentration (IC50) lay within 1 to 1000 µM.

Turning to `COC(=O)N1c2ccc3c(nc(Cc4cncc(Cl)n4)n3[C@@H]3CCC[C@@H](C(=O)O)C3)c2CC[C@@H]1C` [Example 645], the 50% inhibitory concentration (IC50) is 1 to 1000 µM.

`COC(=O)N1c2ccc3c(nc(C(C)(C)c4ccccc4)n3[C@H]3CC[C@H](C(=O)O)CC3)c2CC[C@@H]1C` [Example 646]: the concentration for half-maximal inhibition (IC50) lay within 1 to 1000 µM.

Regarding `COC(=O)N1c2ccc3c(nc(CCC4CCOCC4)n3[C@@H]3CCC[C@@H](C(=O)O)C3)c2CC[C@@H]1C` [Example 648], the half-inhibitory concentration (IC50) is 1 to 1000 µM.

Take `COC(=O)N1c2ccc3c(nc(C(C)Cn4cc(Cl)cn4)n3C3CCS(=O)(=O)C3)c2CC[C@@H]1C` (stereo partly drawn) [Example 651]: the half-maximal inhibitory concentration (IC50) is 1 to 1000 µM.

Regarding `COC(=O)N1c2ccc3c(nc(C(C)Cn4cc(C)cn4)n3C3CCC(C(=O)O)CC3)c2CC[C@@H]1C` (stereo partly drawn) [Example 655], the IC50 is 1 to 1000 µM.

For the compound `COC(=O)N1c2ccc3c(nc(Cc4cc(Cl)cc(OC)c4)n3[C@H]3CC[C@H](C(=O)O)CC3)c2CC[C@@H]1C` [Example 656], the half-maximal inhibitory concentration (IC50) lay in the range of 1 to 1000 µM.

With `COC(=O)N1c2ccc3c(nc(Cc4cccc(F)c4OC)n3[C@H]3CC[C@H](C(=O)O)CC3)c2CC[C@@H]1C` [Example 661], the IC50 lay in the range of 1 to 1000 µM.

As for `COC(=O)N1c2ccc3c(nc(Cc4ccc(Cl)cn4)n3[C@@H]3CCC[C@@H](C(=O)O)C3)c2CC[C@@H]1C` [Example 663], the half-maximal inhibitory concentration (IC50) lay in the range of 1 to 1000 µM.
